This is an account of results in patent US9200005B2, “Inhibitor compounds of phosphodiesterase type 10A” (AbbVie Deutschland GmbH & Co. KG, priority 2013, dated 2015).

By IC50 is commonly meant the concentration that gives 50% inhibition.

Structures can show the parent of a compound that is named as a salt.

Data set [1] deals with PDE10A (UniProt Q9Y233). In words: Measurement of PDE activity (HTRF cAMP kit, recombinant PDE10A). The conditions noted are these: substrate 20 nM, 60 minutes at 29° C. The class given is biochemical, human, rat and mouse. On the technique in general: TR-FRET usually uses a lanthanide donor and a delayed reading to cut background.
Data set [2] is described as follows: Determination of the microsomal half-life / microsomal clearance, rat liver microsomes. The conditions noted are these: 0.5 μM test substance, 0.25 mg of microsomal protein/mL, NADPH, 37° C. Type of data set: in vitro ADME. The essentials: (§1)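 Compound (0.5 μM) was preincubated 5 min at 37 °C with rat or human liver microsomes (0.25 mg protein/mL) in 0.05 M phosphate pH 7.4, and NADPH (1 mg/mL) was then added. Samples taken at 0-30 min and quenched with acetonitrile were analysed by MS/MS. T½ was derived assuming first-order decay, and clearance […] was calculated from T½ and protein content.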
A general note: Liver microsomes are vesicles of endoplasmic reticulum, rich in cytochrome P450 enzymes.

A short description of data set [3]: Determination of the microsomal half-life / microsomal clearance, human liver microsomes. The class given is in vitro ADME. The settings on record: 0.5 μM test substance, 0.25 mg of microsomal protein/mL, NADPH, 37° C. The essentials:
as §1

Data set [4] relates to rats. The conditions noted are these: cited from earlier work.
Data set [5] deals with rats. The conditions noted are these: PCP (WO 03/093499); cited from earlier work.
Data set [6] concerns rats. The conditions noted are these: amphetamine (WO 03/093499); cited from earlier work.

Consider `Cn1nc(-c2ccncc2)c2scc(-c3cncnc3)c2c1=O` [Example 11, 5-methyl-7-(pyridin-4-yl)-3-(pyrimidin-5-yl)thieno[2,3-d]pyridazin-4(5H)-one (hydrochloride salt)], for which, in data set [1] ((hydrochloride salt)), the IC50 lay in the range of 100 to 200 nM. Further, the “Rat mCl” value in data set [2] is “++ (++: <100 μl min^−1 mg^−1)”. Also, the “Human mCl” value in data set [3] is given as “++ (++: <100 μl min^−1 mg^−1)”.

On to `COc1cc(COc2nn(C)c(=O)c3c(-c4ccncc4)csc23)cc(OC)c1` [Example 75, 7-[(3,5-dimethoxybenzyl)oxy]-5-methyl-3-(pyridin-4-yl)thieno[2,3-d]pyridazin-4(5H)-one], for which, in data set [1], the IC50 was less than 100 nM. Also, the “Rat mCl” value in data set [2] is “++ (++: <100 μl min^−1 mg^−1)”. Moreover, the “Human mCl” value in data set [3] is reported as “+ (+: 100-220 μl min^−1 mg^−1)”.

Turning to `Cn1nc(NCc2ccccc2)c2scc(-c3ccncc3)c2c1=O.O=C(O)C(F)(F)F.O=C(O)C(F)(F)F` [Example 50, 7-(benzylamino)-5-methyl-3-(pyridin-4-yl)thieno[2,3-d]pyridazin-4(5H)-one bis(trifluoroacetate)], the IC50 in data set [1] is 100 to 200 nM. Moreover, the “Rat mCl” value in data set [2] is given as “++ (++: <100 μl min^−1 mg^−1)”. Further, in data set [3], the “Human mCl” value is “++ (++: <100 μl min^−1 mg^−1)”.

With `Cn1nc(-c2cccc(C#N)c2)c2scc(-c3ccncc3)c2c1=O` [Example 94, 3-[5-methyl-4-oxo-3-(pyridin-4-yl)-4,5-dihydrothieno[2,3-d]pyridazin-7-yl]benzonitrile], in data set [1], the IC50 is 100 to 200 nM. In data set [2], the “Rat mCl” value is “++ (++: <100 μl min^−1 mg^−1)”. In addition, the “Human mCl” value in data set [3] was “++ (++: <100 μl min^−1 mg^−1)”.

With `CCn1nc(-c2ccncc2)c2scc(-c3cncnc3)c2c1=O` [Example 145, 5-ethyl-7-(pyridin-4-yl)-3-(pyrimidin-5-yl)thieno[2,3-d]pyridazin-4(5H)-one], in data set [1], the IC50 was less than 100 nM. Besides, the “Rat mCl” value in data set [2] is reported as “++ (++: <100 μl min^−1 mg^−1)”. Also, in data set [3], the “Human mCl” value is on record as “++ (++: <100 μl min^−1 mg^−1)”.

For `COc1cccc(Oc2nn(C)c(=O)c3c(-c4ccncc4)csc23)c1` [Example 85, 7-(3-methoxyphenoxy)-5-methyl-3-(pyridin-4-yl)thieno[2,3-d]pyridazin-4(5H)-one], in data set [1], the IC50 lay in the range of 100 to 200 nM. For the same molecule, the “Rat mCl” value in data set [2] is recorded as “++ (++: <100 μl min^−1 mg^−1)”. For the same molecule, in data set [3], the “Human mCl” value was “++ (++: <100 μl min^−1 mg^−1)”.

For the molecule `CCn1nc(-c2ccncc2)c2scc(-c3ccncc3)c2c1=O` [Example 136, 5-ethyl-3,7-di(pyridin-4-yl)thieno[2,3-d]pyridazin-4(5H)-one], the IC50 in data set [1] was less than 100 nM. Also, the “Rat mCl” value in data set [2] is reported as “++ (++: <100 μl min^−1 mg^−1)”. The “Human mCl” value in data set [3] is given as “++ (++: <100 μl min^−1 mg^−1)”.

For the molecule `COc1ccc(-c2nn(C)c(=O)c3c(-c4ccncc4)csc23)cc1` [Example 96, 7-(4-methoxyphenyl)-5-methyl-3-(pyridin-4-yl)thieno[2,3-d]pyridazin-4(5H)-one], the IC50 in data set [1] was less than 100 nM. The “Rat mCl” value in data set [2] is reported as “++ (++: <100 μl min^−1 mg^−1)”. For the same molecule, the “Human mCl” value in data set [3] was “+ (+: 100-220 μl min^−1 mg^−1)”.

`COc1ccc(Cc2nccc3cc(OC)c(OC)cc23)cc1OC` [Papaverine, papaverine]: the “catalepsy on its own” value in data set [4] (alone (WO 03/093499)) is “did not cause catalepsy”. For the same molecule, in data set [4] (with haloperidol (WO 03/093499)), the “cataleptic effect of the D2 receptor antagonist haloperidol” value was “potentiated”. Besides, in data set [5], the “hyperactivity in rats induced by PCP” value is “reduced”. Also, the “reduction of amphetamine-induced hyperactivity” value in data set [6] is “insignificant”.

Take `Cn1nc(Oc2ccc3c(c2)OCO3)c2scc(-c3ccncc3)c2c1=O` [Example 89, 7-(1,3-benzodioxol-5-yloxy)-5-methyl-3-(pyridin-4-yl)thieno[2,3-d]pyridazin-4(5H)-one]: in data set [1], the IC50 lay within 200 to 500 nM. For the same molecule, in data set [2], the “Rat mCl” value is “+ (+: 100-220 μl min^−1 mg^−1)”. Besides, the “Human mCl” value in data set [3] is “++ (++: <100 μl min^−1 mg^−1)”.

In the case of `COc1ccccc1Oc1nn(C)c(=O)c2c(-c3ccncc3)csc12.O=C(O)C(F)(F)F` [Example 84, 7-(2-methoxyphenoxy)-5-methyl-3-(pyridin-4-yl)thieno[2,3-d]pyridazin-4(5H)-one trifluoroacetate], in data set [1], the IC50 is 100 to 200 nM. In addition, the “Rat mCl” value in data set [2] is “∘ (∘ not avialable or >220 μl min^−1 mg^−1)”. In addition, the “Human mCl” value in data set [3] is recorded as “++ (++: <100 μl min^−1 mg^−1)”.

As to `Cn1nc(Oc2ccccc2)c2scc(-c3ccncc3)c2c1=O` [Example 81, 5-methyl-7-phenoxy-3-(pyridin-4-yl)thieno[2,3-d]pyridazin-4(5H)-one], the IC50 in data set [1] fell in the range of 200 to 500 nM. Also, in data set [2], the “Rat mCl” value was “++ (++: <100 μl min^−1 mg^−1)”. The “Human mCl” value in data set [3] is recorded as “++ (++: <100 μl min^−1 mg^−1)”.

For `Cn1nc(OCc2nc3ccccc3n2C)c2scc(-c3ccncc3)c2c1=O` [Example 70, 5-methyl-7-[(1-methyl-1H-benzimidazol-2-yl)methoxy]-3-(pyridin-4-yl)thieno[2,3-d]pyridazin-4(5H)-one], the IC50 in data set [1] was less than 100 nM. Moreover, the “Rat mCl” value in data set [2] is reported as “+ (+: 100-220 μl min^−1 mg^−1)”. For the same molecule, in data set [3], the “Human mCl” value was “+ (+: 100-220 μl min^−1 mg^−1)”.
